ChEMBL document CHEMBL1132186, “Structure-based design of selective inhibitors of dihydrofolate reductase: synthesis and antiparasitic activity of 2, 4-diaminopteridine analogues with a bridged diarylamine side chain” (J Med Chem, 1999)

Experiments:
Dihydrofolate reductase [1] = biological target: T1, Dihydrofolate reductase (Mycobacterium avium, UniProt O30463); assay: Inhibitory activity against DHFR (Dihydrofolate reductase) from Mycobacterium avium
T1 sequence (O30463 whole entry): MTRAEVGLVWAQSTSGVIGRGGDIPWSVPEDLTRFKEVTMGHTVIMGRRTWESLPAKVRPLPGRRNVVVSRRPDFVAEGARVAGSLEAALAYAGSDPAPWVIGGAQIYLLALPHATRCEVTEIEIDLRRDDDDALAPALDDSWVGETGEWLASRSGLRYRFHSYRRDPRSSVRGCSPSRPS

Dihydrofolate reductase [2] = biological target: T2, Dihydrofolate reductase (Rattus norvegicus, UniProt Q920D2); assay: Inhibitory activity against DHFR (Dihydrofolate reductase) from Rat liver
T2 sequence (Q920D2 whole entry): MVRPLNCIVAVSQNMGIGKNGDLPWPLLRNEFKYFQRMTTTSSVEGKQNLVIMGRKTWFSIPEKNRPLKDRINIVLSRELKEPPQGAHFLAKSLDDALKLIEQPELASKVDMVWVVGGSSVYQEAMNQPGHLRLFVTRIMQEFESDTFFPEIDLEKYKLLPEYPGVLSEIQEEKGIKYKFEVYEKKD

[3] = biological target: T3, Bifunctional dihydrofolate reductase-thymidylate synthase (Toxoplasma gondii, UniProt Q07422); assay: Inhibitory activity against DHFR (Dihydrofolate reductase) from Toxoplasma gondii.
T3 sequence (Q07422 whole entry): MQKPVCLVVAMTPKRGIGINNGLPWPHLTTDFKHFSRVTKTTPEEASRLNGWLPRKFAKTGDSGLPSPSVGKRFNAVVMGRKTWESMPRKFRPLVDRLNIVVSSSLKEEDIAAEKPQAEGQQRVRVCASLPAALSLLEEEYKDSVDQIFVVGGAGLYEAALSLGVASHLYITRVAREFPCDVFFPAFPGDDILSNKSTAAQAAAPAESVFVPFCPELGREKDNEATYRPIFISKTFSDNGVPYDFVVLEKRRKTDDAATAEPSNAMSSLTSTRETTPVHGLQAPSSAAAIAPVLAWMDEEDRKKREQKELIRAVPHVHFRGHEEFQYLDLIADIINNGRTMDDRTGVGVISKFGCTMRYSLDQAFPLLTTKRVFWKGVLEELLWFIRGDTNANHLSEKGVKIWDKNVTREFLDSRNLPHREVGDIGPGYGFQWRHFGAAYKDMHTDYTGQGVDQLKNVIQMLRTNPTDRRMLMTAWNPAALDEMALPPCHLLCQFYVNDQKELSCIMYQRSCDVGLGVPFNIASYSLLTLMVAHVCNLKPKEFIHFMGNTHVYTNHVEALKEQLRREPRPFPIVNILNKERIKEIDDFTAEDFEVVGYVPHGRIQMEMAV

[4] = Ratio of Dihydrofolate reductase inhibitory activity in rat to Mycobacterium avium
[5] = Ratio of Dihydrofolate reductase inhibitory activity in rat to Pneumocystis carinii
[6] = Ratio of Dihydrofolate reductase inhibitory activity in rat to Toxoplasma gondii
Dihydrofolate reductase [7] = biological target: T4, Dihydrofolate reductase (Pneumocystis carinii, UniProt P16184)
T4 sequence (P16184 whole entry): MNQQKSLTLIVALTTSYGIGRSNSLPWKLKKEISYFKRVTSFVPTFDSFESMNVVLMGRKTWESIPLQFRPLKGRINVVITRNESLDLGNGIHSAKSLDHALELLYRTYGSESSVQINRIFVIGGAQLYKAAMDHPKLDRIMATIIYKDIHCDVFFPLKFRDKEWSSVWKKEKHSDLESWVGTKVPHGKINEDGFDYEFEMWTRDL
Description: Inhibitory activity against DHFR (Dihydrofolate reductase) from Pneumocystis carinii.

Row | SMILES | IC50 (Dihydrofolate reductase [1]) [nM] | IC50 (Dihydrofolate reductase [2]) [nM] | IC50 [3] [nM] | Selectivity ratio [4] | Selectivity ratio [5] | Selectivity ratio [6] | IC50 (Dihydrofolate reductase [7]) [nM]
1 | Nc1nc(N)c2nc(CN3c4ccccc4Sc4ccccc43)cnc2n1 | 29 | 200 | 110 | 6.9 | 1.7 | 1.8 | 120
2 | Nc1nc(N)c2nc(CN3c4ccccc4CCc4ccccc43)cnc2n1 | – | – | – | – | 3.6 | 5.6 | –
3 | Nc1nc(N)c2nc(Cn3c4ccccc4c4ccccc43)cnc2n1 | – | 55 | 12 | – | 0.55 | 4.6 | 100
4 | Nc1nc(N)c2nc(CN3c4ccccc4Cc4ccccc43)cnc2n1 | 17 | 27 | 29 | 1.6 | 0.64 | 0.93 | 42
5 | Nc1nc(N)c2nc(CN3c4ccccc4Oc4ccccc43)cnc2n1 | – | 13000 | 2200 | – | – | – | 3400
6 | Nc1nc(N)c2nc(CN3c4ccccc4C=Cc4ccccc43)cnc2n1 | 12 | – | 43 | 367 | 21 | 102 | –
7 | Nc1nc(N)c2nc(CN(c3ccccc3)c3ccccc3)cnc2n1 | 3700 | 4000 | – | 1.1 | 0.82 | 3.1 | –
